From patent US10738028B2, “Spiro three-membered ring, spiro five-membered ring peptide deformylase inhibitor and use thereof in antibacteria and anti-tumor” (priority 2016, dated 2020)
pIC50: −log10 of the molar value. ≈ marks a conversion by molar mass, not a printed value.

What was measured:
Format in all cases: cell-based
[1] = tested on: Enterococcus faecalis (EFA); assay: MIC, two-fold agar dilution (CLSI), clinical isolates
Procedure, shortened: (§1)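 Test samples were assayed by the CLSI-recommended two-fold agar dilution method, and the minimum inhibitory concentration against each tested strain was determined.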

[2] = tested on: Enterococcus faecium (EFM); assay: as above
Procedure, shortened: as §1

[3] = tested on: Escherichia coli (including ESBLs, non-ESBLs); assay: as above
Procedure, shortened: as §1

[4] = tested on: Moraxella catarrhalis (BCA); assay: as above; conditions: for Anti-bacterial activity (MIC), strain BCA 14-10: clinical isolate BCA 14-10
Procedure, shortened: as §1

[5] = tested on: Streptococcus pneoumoniae (SPN); assay: as above
Procedure, shortened: as §1

[6] = tested on: methicillin-resistant Staphylococcus aureus (MRSA); assay: as above
Procedure, shortened: as §1

[7] = tested on: methicillin-resistant Staphylococcus epidermidis (MRSE); assay: as above
Procedure, shortened: as §1

[8] = tested on: methicillin-sensitive Staphylococcus aureus (MSSA); assay: as above
Procedure, shortened: as §1

[9] = tested on: methicillin-sensitive Staphylococcus epidermidis (MSSE); assay: as above
Procedure, shortened: as §1

[10] = tested on: HCT-116 colorectal cancer cell line; assay: CCK-8 proliferation inhibition; conditions: 72 hours, CCK-8; for HCT116 inhibition rate/%: 30 µM
Procedure, shortened: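 Viability read-out: 1:10 diluted CCK-8 after 72 h compound exposure at 37 °C, 5% CO2. Cells (2000/well, McCoy's 5A plus 10% newborn bovine serum) pre-cultured overnight; vehicle control 1‰ DMSO.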

[11] = tested on: A549 lung cancer cell line; assay: CCK-8 proliferation inhibition; conditions: Homo sapiens; for inhibition at 30 µM: A549, 72 h, concentration of 30 μM
Procedure, shortened: (§2)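 Plating at 2000 cells/well, then incubation overnight at 37° C. Next, a range of compound concentrations for 72 hours (control 1‰ DMSO). Finally, medium decanted and CCK-8 diluted 1:10 added.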

[12] = tested on: BEL-7402 liver cancer cell line; assay: CCK-8 proliferation inhibition; conditions: for Inhibition of proliferation, Liver cancer BEL-7402: concentration of 30 μM, 72 hours, 30 µM
Procedure, shortened: as §2

[13] = tested on: MGC-803 gastric cancer cell line; assay: CCK-8 proliferation inhibition
Procedure, shortened: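 Growth inhibition measured by CCK-8 read-out after 72 h continuous compound treatment, 1‰ DMSO vehicle as control. Cells plated 2000/well the night before at 37 °C, 5% CO2; medium was 1640 for Jurkat and MGC-803, F12 for PC3, DMEM high glucose for MCF-7, each with 10% newborn bovine serum.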

Compound: O=CN(O)C[C@@H](CC1CCCC1)C(=O)N1CC2(CC2)C[C@H]1C(=O)Nc1ncco1 [Example 36]
- MIC (anti-bacterial activity) ([1]; strain EFA 15-1): 16 µg/mL (≈ 39.6 µM)
- MIC (anti-bacterial activity) ([1]; strain EFA 15-2): 16 µg/mL (≈ 39.6 µM)
- MIC (anti-bacterial activity) ([1]; strain EFA 15-3): 16 µg/mL (≈ 39.6 µM)
- MIC (anti-bacterial activity) ([1]; strain EFA 15-4): 16 µg/mL (≈ 39.6 µM)
- MIC (anti-bacterial activity) ([1]; strain EFA 15-5): 16 µg/mL (≈ 39.6 µM)
- MIC (anti-bacterial activity) ([1]; strain EFA 15-6): 16 µg/mL (≈ 39.6 µM)
- MIC (anti-bacterial activity) ([1]; strain EFA 15-9): 16 µg/mL (≈ 39.6 µM)
- MIC (anti-bacterial activity) ([2]; strain EFM 15-1): 16 µg/mL (≈ 39.6 µM)
- MIC (anti-bacterial activity) ([2]; strain EFM 15-2): 8 µg/mL (≈ 19.8 µM)
- MIC (anti-bacterial activity) ([2]; strain EFM 15-3): 2 µg/mL (≈ 4.94 µM)
- MIC (anti-bacterial activity) ([2]; strain EFM 15-4): 8 µg/mL (≈ 19.8 µM)
- MIC (anti-bacterial activity) ([2]; strain EFM 15-5): 8 µg/mL (≈ 19.8 µM)
- MIC (anti-bacterial activity) ([2]; strain EFM 15-6): 8 µg/mL (≈ 19.8 µM)
- MIC (anti-bacterial activity) ([3]; strain ECO+ 15-1): 8 µg/mL (≈ 19.8 µM)
- MIC (anti-bacterial activity) ([3]; strain ECO+ 15-2): > 32 µg/mL
- MIC (anti-bacterial activity) ([3]; strain ECO+ 15-3): > 32 µg/mL
- MIC (anti-bacterial activity) ([3]; strain ECO+ 15-4): > 32 µg/mL
- MIC (anti-bacterial activity) ([3]; strain ECO− 15-1): > 32 µg/mL
- MIC (anti-bacterial activity) ([3]; strain ECO− 15-2): 32 µg/mL (≈ 79.1 µM)
- MIC (anti-bacterial activity) ([3]; strain ECO− 15-3): 32 µg/mL (≈ 79.1 µM)
- MIC (anti-bacterial activity) ([3]; strain ECO− 15-4): 32 µg/mL (≈ 79.1 µM)
- Anti-bacterial activity (MIC), strain BCA 14-10 [4]: 2 µg/mL
- MIC (anti-bacterial activity) ([4]; strain BCA 14-1): 16 µg/mL (≈ 39.6 µM)
- MIC (anti-bacterial activity) ([4]; strain BCA 14-4): 16 µg/mL (≈ 39.6 µM)
- MIC (anti-bacterial activity) ([4]; strain BCA 14-5): 4 µg/mL (≈ 9.89 µM)
- MIC (anti-bacterial activity) ([4]; strain BCA 14-6): 16 µg/mL (≈ 39.6 µM)
- MIC (anti-bacterial activity) ([4]; strain BCA 14-7): 4 µg/mL (≈ 9.89 µM)
- MIC (anti-bacterial activity) ([4]; strain BCA 14-8): 8 µg/mL (≈ 19.8 µM)
- MIC (anti-bacterial activity) ([5]; strain SPN 16-2): 2 µg/mL (≈ 4.94 µM)
- MIC (anti-bacterial activity) ([5]; strain SPN 16-4): 16 µg/mL (≈ 39.6 µM)
- MIC (anti-bacterial activity) ([6]; strain MRSA 15-1): 4 µg/mL (≈ 9.89 µM)
- MIC (anti-bacterial activity) ([6]; strain MRSA 15-2): 8 µg/mL (≈ 19.8 µM)
- MIC (anti-bacterial activity) ([6]; strain MRSA 15-3): 4 µg/mL (≈ 9.89 µM)
- MIC (anti-bacterial activity) ([6]; strain MRSA 15-4): 8 µg/mL (≈ 19.8 µM)
- MIC (anti-bacterial activity) ([7]; strain MRSE 15-1): 4 µg/mL (≈ 9.89 µM)
- MIC (anti-bacterial activity) ([7]; strain MRSE 15-2): 8 µg/mL (≈ 19.8 µM)
- MIC (anti-bacterial activity) ([7]; strain MRSE 15-3): 8 µg/mL (≈ 19.8 µM)
- MIC (anti-bacterial activity) ([7]; strain MRSE 15-7): 8 µg/mL (≈ 19.8 µM)
- MIC (anti-bacterial activity) ([8]; strain MSSA 15-3): 8 µg/mL (≈ 19.8 µM)
- MIC (anti-bacterial activity) ([8]; strain MSSA 15-4): 8 µg/mL (≈ 19.8 µM)
- MIC (anti-bacterial activity) ([8]; strain MSSA 15-5): 8 µg/mL (≈ 19.8 µM)
- MIC (anti-bacterial activity) ([8]; strain MSSA 15-6): 4 µg/mL (≈ 9.89 µM)
- MIC (anti-bacterial activity) ([9]; strain MSSE 15-3): 8 µg/mL (≈ 19.8 µM)
- MIC (anti-bacterial activity) ([9]; strain MSSE 15-4): 8 µg/mL (≈ 19.8 µM)
- MIC (anti-bacterial activity) ([9]; strain MSSE 15-5): 8 µg/mL (≈ 19.8 µM)
- MIC (anti-bacterial activity) ([9]; strain MSSE 15-6): 8 µg/mL (≈ 19.8 µM)
- inhibition at 30 µM ([10]; Homo sapiens, HCT-116, 72 h, concentration of 30 μM, read-out: HCT116 inhibition rate/%): > 50%
- HCT116 inhibition rate/% ([10]; concentration of 30 μM): 60%
- inhibition at 30 µM [11]: 26%
- Inhibition of proliferation, Liver cancer BEL-7402 [12]: 73%
- inhibition at 30 µM ([13]; Homo sapiens, MGC-803, 72 h, concentration of 30 μM): 46%

Compound: Cc1cnc(NC(=O)[C@@H]2CC3(CC3)CN2C(=O)[C@H](CC2CCCC2)CN(O)C=O)s1 [Example 29, (S)-5-((R)-3-cyclopentylmethyl-2-((N-hydroxyformamido)methyl)propionyl)-N-(5-methylthiazol-2-yl)-5-spiro[2.4]heptane-6-carboxamide]
- MIC (anti-bacterial activity) ([1]; strain EFA 15-1): 4 µg/mL (≈ 9.2 µM)
- MIC (anti-bacterial activity) ([1]; strain EFA 15-2): 4 µg/mL (≈ 9.2 µM)
- MIC (anti-bacterial activity) ([1]; strain EFA 15-3): 1 µg/mL (≈ 2.3 µM)
- MIC (anti-bacterial activity) ([1]; strain EFA 15-4): 4 µg/mL (≈ 9.2 µM)
- MIC (anti-bacterial activity) ([1]; strain EFA 15-5): 4 µg/mL (≈ 9.2 µM)
- MIC (anti-bacterial activity) ([1]; strain EFA 15-6): 4 µg/mL (≈ 9.2 µM)
- MIC (anti-bacterial activity) ([1]; strain EFA 15-9): 2 µg/mL (≈ 4.6 µM)
- MIC (anti-bacterial activity) ([2]; strain EFM 15-1): 1 µg/mL (≈ 2.3 µM)
- MIC (anti-bacterial activity) ([2]; strain EFM 15-2): 1 µg/mL (≈ 2.3 µM)
- MIC (anti-bacterial activity) ([2]; strain EFM 15-3): 0.5 µg/mL (≈ 1.15 µM)
- MIC (anti-bacterial activity) ([2]; strain EFM 15-4): 1 µg/mL (≈ 2.3 µM)
- MIC (anti-bacterial activity) ([2]; strain EFM 15-5): 1 µg/mL (≈ 2.3 µM)
- MIC (anti-bacterial activity) ([2]; strain EFM 15-6): 1 µg/mL (≈ 2.3 µM)
- MIC (anti-bacterial activity) ([3]; strain ECO+ 15-1): 16 µg/mL (≈ 36.8 µM)
- MIC (anti-bacterial activity) ([3]; strain ECO+ 15-2): 32 µg/mL (≈ 73.6 µM)
- MIC (anti-bacterial activity) ([3]; strain ECO+ 15-3): 16 µg/mL (≈ 36.8 µM)
- MIC (anti-bacterial activity) ([3]; strain ECO+ 15-4): 16 µg/mL (≈ 36.8 µM)
- MIC (anti-bacterial activity) ([3]; strain ECO− 15-1): 16 µg/mL (≈ 36.8 µM)
- MIC (anti-bacterial activity) ([3]; strain ECO− 15-2): 16 µg/mL (≈ 36.8 µM)
- MIC (anti-bacterial activity) ([3]; strain ECO− 15-3): 32 µg/mL (≈ 73.6 µM)
- MIC (anti-bacterial activity) ([3]; strain ECO− 15-4): 16 µg/mL (≈ 36.8 µM)
- Anti-bacterial activity (MIC), strain BCA 14-10 [4]: 0.25 µg/mL
- MIC (anti-bacterial activity) ([4]; strain BCA 14-1): 0.5 µg/mL (≈ 1.15 µM)
- MIC (anti-bacterial activity) ([4]; strain BCA 14-4): 0.5 µg/mL (≈ 1.15 µM)
- MIC (anti-bacterial activity) ([4]; strain BCA 14-5): 0.125 µg/mL (≈ 0.288 µM)
- MIC (anti-bacterial activity) ([4]; strain BCA 14-6): 0.25 µg/mL (≈ 0.575 µM)
- MIC (anti-bacterial activity) ([4]; strain BCA 14-7): 0.125 µg/mL (≈ 0.288 µM)
- MIC (anti-bacterial activity) ([4]; strain BCA 14-8): 0.25 µg/mL (≈ 0.575 µM)
- MIC (anti-bacterial activity) ([5]; strain SPN 16-4): 4 µg/mL (≈ 9.2 µM)
- MIC (anti-bacterial activity) ([6]; strain MRSA 15-1): 0.125 µg/mL (≈ 0.288 µM)
- MIC (anti-bacterial activity) ([6]; strain MRSA 15-2): 0.125 µg/mL (≈ 0.288 µM)
- MIC (anti-bacterial activity) ([6]; strain MRSA 15-3): 0.06 µg/mL (≈ 0.138 µM)
- MIC (anti-bacterial activity) ([6]; strain MRSA 15-4): 0.125 µg/mL (≈ 0.288 µM)
- MIC (anti-bacterial activity) ([7]; strain MRSE 15-1): 0.06 µg/mL (≈ 0.138 µM)
- MIC (anti-bacterial activity) ([7]; strain MRSE 15-2): 0.125 µg/mL (≈ 0.288 µM)
- MIC (anti-bacterial activity) ([7]; strain MRSE 15-3): 0.125 µg/mL (≈ 0.288 µM)
- MIC (anti-bacterial activity) ([7]; strain MRSE 15-7): 0.125 µg/mL (≈ 0.288 µM)
- MIC (anti-bacterial activity) ([8]; strain MSSA 15-3): 0.125 µg/mL (≈ 0.288 µM)
- MIC (anti-bacterial activity) ([8]; strain MSSA 15-4): 0.125 µg/mL (≈ 0.288 µM)
- MIC (anti-bacterial activity) ([8]; strain MSSA 15-5): 0.125 µg/mL (≈ 0.288 µM)
- MIC (anti-bacterial activity) ([8]; strain MSSA 15-6): 0.125 µg/mL (≈ 0.288 µM)
- MIC (anti-bacterial activity) ([9]; strain MSSE 15-3): 0.125 µg/mL (≈ 0.288 µM)
- MIC (anti-bacterial activity) ([9]; strain MSSE 15-4): 0.125 µg/mL (≈ 0.288 µM)
- MIC (anti-bacterial activity) ([9]; strain MSSE 15-5): 0.125 µg/mL (≈ 0.288 µM)
- MIC (anti-bacterial activity) ([9]; strain MSSE 15-6): 0.06 µg/mL (≈ 0.138 µM)
- pIC50 ([10]; Homo sapiens, HCT-116): 5.05
- HCT116 inhibition rate/% ([10]; concentration of 30 μM): 94%
- inhibition at 30 µM [11]: 36%
- pIC50 ([11]; A549, 72 hours): 4.87
- pIC50 ([12]; Homo sapiens, Bel-7402, 72 hours): 5.12
- Inhibition of proliferation, Liver cancer BEL-7402 [12]: 79%
- pIC50 ([13]; Homo sapiens, MGC-803, 72 hours): 5.11
- Inhibition of proliferation, Gastric cancer MGC-803 ([13]; concentration of 30 μM, 72 hours, 30 µM): 78%
